Assay results from PubChem BioAssay (NCI).
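96-well plates; 48 h exposure; 5 concentrations. Endpoints by linear interpolation between flanking doses. Not reached: highest tested concentration assigned. GI50 = concentration required for 50% inhibition of growth. TGI: concentration producing complete growth inhibition.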

Tests used:
Assay in all cases: DTP human tumour cell line panel, 48 h
786-0 renal = tested on: 786-0 renal
HOP-62 NSCLC = tested on: HOP-62 NSCLC
OVCAR-4 ovarian = tested on: OVCAR-4 ovarian
TK-10 renal = tested on: TK-10 renal
U251 CNS = tested on: U251 CNS
UACC-257 melanoma = tested on: UACC-257 melanoma
HCC-2998 colon = tested on: HCC-2998 colon

| SMILES | TGI (786-0 renal) [µM] | TGI (HOP-62 NSCLC) [µM] | TGI (OVCAR-4 ovarian) [µM] | TGI (TK-10 renal) [µM] | TGI (U251 CNS) [µM] | TGI (UACC-257 melanoma) [µM] | TGI (HCC-2998 colon) [µM] | GI50 (786-0 renal) [µM] | GI50 (HCC-2998 colon) [µM] | GI50 (HOP-62 NSCLC) [µM] | GI50 (OVCAR-4 ovarian) [µM] | GI50 (TK-10 renal) [µM] | GI50 (U251 CNS) [µM] | GI50 (UACC-257 melanoma) [µM] |
| --- | --- | --- | --- | --- | --- | --- | --- | --- | --- | --- | --- | --- | --- | --- |
| N#Cc1cccc(C2SCc3nc4ccccc4n32)c1 (stereo not given) | > 100 | > 100 | > 100 | > 100 | > 100 | > 100 |  |  |  |  |  |  |  |  |
| Cc1cc(Br)ccc1N=NC1C(=O)ON=C1c1ccccc1 (stereo not given) | > 100 | > 100 | > 100 | > 100 | > 100 | > 100 | 76.4 |  |  |  |  |  |  |  |
| COc1cc(Br)c(C2OCCCO2)cc1OCc1ccccc1 | > 100 | > 100 | > 100 | > 100 | > 100 |  |  |  |  |  |  |  |  |  |
| CCn1c(O)c(C(=O)Nc2cccs2)c(=O)n(CC)c1=S | 42.2 | 47.6 | 70.9 | 69.3 | 25.9 | 56 |  |  |  |  |  |  |  |  |
| O=C(c1ccccc1)N1CCc2c([nH]c3ccccc23)C1 | > 100 | > 100 | > 100 | > 100 | > 100 | 95 | > 100 |  |  |  |  |  |  |  |
| C/C(=N\NC(N)=S)c1ccc(Oc2ccccc2)cc1 | 14.5 | 46.6 | 16.8 | 21.8 | 31.3 |  | 28.7 |  |  |  |  |  |  |  |
| BrC(/C=N/Nc1nnc(-c2ccccc2)c(-c2ccccc2)n1)C(Br)c1ccccc1 (stereo not given) | > 100 | 92.2 |  | > 100 | > 100 | > 100 | > 100 |  |  |  |  |  |  |  |
| O=c1ccn([C@@H]2C[C@H](CO)CS(=O)C2)c(=O)[nH]1 (stereo not given in full) | > 100 | > 100 | > 100 | > 100 | > 100 | > 100 | > 100 |  |  |  |  |  |  |  |
| CCOc1ccc(/C=C/C(=O)c2sc(NNC(C)=O)nc2C)cc1 | > 100 | > 100 |  | > 100 | > 100 | > 100 | > 100 |  |  |  |  |  |  |  |
| CCC[CH2][Sn]1([CH2]CCC)[O]C(=O)c2cccnc2[S]1 | 6.8 | 43.7 | 21.9 | 12.1 | 5.33 | 6.97 | 6.15 | 2.55 | 2.39 | 28.9 | 10.1 | 3.71 | 1.21 | 2.64 |
| COc1ccc(Cc2c3cc(OC)c(OC)cc3cc[n+]2C)cc1 | > 29.7 | > 48.7 | > 40.5 | > 65.1 | > 73.1 | > 58.4 | > 32.8 |  |  |  |  |  |  |  |
| C#CC[C@]12CC(=O)CC[C@H]1CC1(C2)OCCO1 | > 100 | > 100 | > 100 | > 100 | > 100 | > 100 | > 100 |  |  |  |  |  |  |  |
| COc1cc(CC2c3cc(OC)c(OC)cc3CCN2C)c(C(=O)O)cc1OC (stereo not given) | > 100 | > 100 |  | > 100 | > 100 | > 100 | > 100 |  |  |  |  |  |  |  |
| CC[C@H]1CNC(=O)CC1CC(=O)OC (stereo not given in full) | > 100 | > 100 | > 100 | > 100 | > 100 | > 100 | > 100 |  |  |  |  |  |  |  |
| Cc1c(Cl)ccc2[s+]snc12 | 36.2 | > 100 | > 100 | > 100 | 70.2 | 89.7 | > 100 |  |  |  |  |  |  |  |
| C[C@H](O)CCC(=O)c1ccoc1 | > 100 | > 100 | > 100 | > 100 | > 100 | > 100 | > 100 |  |  |  |  |  |  |  |
| Cc1nc2ccccc2c(=O)n1/N=C(\N=Nc1ccc(Cl)cc1)c1ccc(N(C)C)cc1 | > 100 | > 100 |  | > 100 |  |  |  |  |  |  |  |  |  |  |
| N#CC1(C2CC(=O)N(c3ccccc3)C2=O)CCCCC1=O (stereo not given) | > 100 |  | > 100 | > 100 | > 100 |  | > 100 |  |  |  |  |  |  |  |
| O=C(Nc1cc(Cl)ccc1Cl)c1cc2ccccc2oc1=O | > 100 | > 100 |  | > 100 | > 100 | > 100 |  |  |  |  |  |  |  |  |
| CC1(C)OC2OC(/C=C/[N+](=O)[O-])C3OC(C)(C)OC3C2O1 (stereo not given) | 27.7 | 38.3 | 30.9 | 9.56 | 32.7 | 20.7 | 31.1 |  |  |  |  |  |  |  |
| CCCCCCCCCCCCCCCCCCCCCCC(=O)N[C@H]1CCc2cc(OC)c(OC)c(OC)c2-c2ccc(SC)c(=O)cc21 | > 100 | > 100 | > 100 | > 100 | 53.2 | > 100 | 65.9 |  |  |  |  |  |  |  |
| COC(=O)N1C=Cc2c(c(C)c3c([nH]c4ccccc43)c2C)C1C (stereo not given) | 26.5 | 34.5 | 26.1 | 35.9 | 30.4 | 35 | 32.1 |  |  |  |  |  |  |  |
| Cc1cc2c(=O)cc(-c3ccncc3)oc2c(C(N)=O)c1C | > 100 | > 100 |  | > 100 | > 100 | > 100 | > 100 |  |  |  |  |  |  |  |
| O=C1C(=C2C(=O)c3ccccc3[N+]2=O)N([O-])c2ccccc21 | 46.1 |  | 31.7 | 81.1 | 53.9 |  |  |  |  |  |  |  |  |  |
| O=P(c1ccccc1)(c1ccccc1)C1CC=C2CCCCCC2C1 (stereo not given) | 51 |  | 67.4 | > 100 | > 100 | 68.5 |  |  |  |  |  |  |  |  |
